Test results taken from patent publication US20230348564A1, “ANTI-CANCER PROTEINS” (UNICHEM LABORATORIES LTD, priority 2020, published 2023).

Key:
[1] = tested on: PA-1 (Ovary teratocarcinoma); test: Xenograft study; assay type: in vivo, mice; conditions: PA-1 xenograft, IP
Excerpt: (§1) The Xenograft models used were HT-29, KB, PA-1, MCF-7, PANC-1, T24 and MDA-MB-231. The basic study design for the Xenograft study was as follows: • 1. Cell maintenance and cell suspension preparation • 2. Aseptic injection of tumor cell suspension in the donor animal • 3. Randomization of animals in respective groups • 4. IP dosing of test items in predetermined doses • 5. IP administration of standard • 6. After completion of dosing period. • 7. The Tumor volume recording weekly twice while body weight and clinical signs daily.

[2] = tested on: MCF-7 (Breast cancer); test: Xenograft study; assay type: in vivo, mice; conditions: MCF-7 xenograft, IP
Excerpt: as §1

[3] = tested on: MDA-MB-231 (Mammary gland/breast adenocarcinoma); test: Xenograft study; assay type: in vivo, mice; conditions: MDA-MB-231 xenograft, IP
Excerpt: as §1

[4] = tested on: KB (Cervical cancer); test: Xenograft study; assay type: in vivo, mice; conditions: IP
Excerpt: as §1

[5] = tested on: T24 (Urinary bladder/transitional cell carcinoma); test: Xenograft study; assay type: in vivo, mice; conditions: IP
Excerpt: as §1

[6] = tested on: Glioblastoma (U251MG); test: cytotoxicity in Brain Tumor Cell lines by MTT assay; conditions: 0.1 Mm-100 μM, 72 h
[7] = tested on: Glioma (C6); test: as above; assay type: cell-based, Rat; conditions: 0.1 Mm-100 μM, 72 h
Method: (§2) The SEQ ID NO. […] Untreated cells were used as control. […] Cells were incubated for 3 h at 37° C.

[8] = tested on: VEGFR2; test: biomarker levels in IOMM-Lee by multiplex analysis; assay type: cell-based, Human
Excerpt: (§3) Effect of SEQ ID No 2 on the expression of following 7 biomarkers were estimated in Human Meningioma cell line (IOMM-Lee) using multiplex analysis: TNF-alpha, VEGF, VEGFR2, HGF, HGFR/c-MET, PDGF-BB, and Contactin-1. Levels of another marker, Notch-1 were also estimated by ELISA in the same cell line. These 8 biomarkers play very crucial role in the pathogenesis and progression of Brain Tumor. […] Supernatants were collected and the levels of these 8 markers were investigated.

[9] = tested on: PDGF-BB; test: biomarker levels in IOMM-Lee by multiplex analysis; assay type: cell-based, Human
Excerpt: as §3

[10] = tested on: Contactin-1; test: biomarker levels in IOMM-Lee by multiplex analysis; assay type: cell-based, Human
Excerpt: as §3

[11] = tested on: HGFR/c-MET; test: biomarker levels in IOMM-Lee by multiplex analysis; assay type: cell-based, Human
Excerpt: as §3

[12] = tested on: TNF-α; test: biomarker levels in IOMM-Lee by multiplex analysis; assay type: cell-based, Human
Excerpt: as §3

[13] = tested on: HGF; test: biomarker levels in IOMM-Lee by multiplex analysis; assay type: cell-based, Human
Excerpt: as §3

[14] = tested on: VEGF; test: biomarker levels in IOMM-Lee by multiplex analysis; assay type: cell-based, Human
Excerpt: as §3

[15] = tested on: Notch-1; test: biomarker levels in IOMM-Lee by ELISA; assay type: cell-based, Human; conditions: 1 μM
Excerpt: as §3

[16] = tested on: THP-1 (Human acute monocytic leukemia); test: Calcein AM cytotoxicity assay; conditions: SEQ ID 2 80 μg/mL, doxorubicin 100 μM; 48h
Method: (§4) All the cancer cell lines were procured from National Centre for Cell Science, Pune (India). The cell lines were maintained under conditions as described in Table 21 below. The cell lines were sub-cultured by trypsinization followed by splitting the cell suspension into fresh flasks and supplementing with fresh culture medium.
(§5) All the cell lines were grown in specified media at 37° C. with 95% Humidity and […].
(§6) The cells were trypsinized, counted by Trypan blue method in Neuebauer's Chamber and plated in wells of flat bottom 96-well plate (dark walled plate, flat bottom) at the density corresponding to 10×10^3 cells/well/180 μl medium.
(§7) Following overnight incubation, the cells were treated with test item (20 μL) at concentrations ranging from 2.5-80 μg/mL, so that the total volume in each well is 200 μL.
(§8) The cells were incubated with the test items or positive control for a time period of 48h. Following incubation, the cell cytotoxicity was estimated using Calcein AM Cell Viability Assay Kit from R&D systems (Cat No. 4892-010-K).
(§9) Fluorescence was measured at 485 nm (excitation/528 run (emission) spectra using Synergy HT micro plate reader.
(§10) Percentage cytotoxicity wrt untreated cells was calculated using formula:
(§11) Cytotoxicity=[(RFUuntreated−RFUsample)/RFUuntreated]*100
(§12) RFU: relative fluorescence units
(§13) IC50 value was calculated using Graph-Pad Prism version 4.01 software.

[17] = tested on: MCF-7 (Human breast adenocarcinoma); test: Calcein AM cytotoxicity assay; conditions: SEQ ID 2 80 μg/mL, doxorubicin 100 μM; 48h
Method: as §4, §5, §6, §7, §8, §9, §10, §11, §12, §13

[18] = tested on: SW620 (Human Colorectal adenocarcinoma); test: Calcein AM cytotoxicity assay; conditions: SEQ ID 2 80 μg/mL, doxorubicin 100 μM; 48h
Method: as §4, §5, §6, §7, §8, §9, §10, §11, §12, §13

[19] = tested on: A549 (Human lung carcinoma); test: Calcein AM cytotoxicity assay; conditions: SEQ ID 2 80 μg/mL, doxorubicin 100 μM; 48h
Method: as §4, §5, §6, §7, §8, §9, §10, §11, §12, §13

[20] = tested on: MCF-10A (Human mammary epithelial cells); test: Calcein AM cytotoxicity assay; conditions: SEQ ID 2 80 μg/mL, doxorubicin 100 μM; 48h
Method: as §4, §5, §6, §7, §8, §9, §10, §11, §12, §13

[21] = tested on: HT-29 (Human Colorectal adenocarcinoma); test: Calcein AM cytotoxicity assay; conditions: SEQ ID 2 80 μg/mL, doxorubicin 100 μM; 48h
Method: as §4, §5, §6, §7, §8, §9, §10, §11, §12, §13

[22] = tested on: SiHa (Human cervix squamous cell carcinoma); test: Calcein AM cytotoxicity assay; conditions: SEQ ID 2 80 μg/mL, doxorubicin 100 μM; 48h
Method: as §4, §5, §6, §7, §8, §9, §10, §11, §12, §13

[23] = tested on: SKOV-3 (Human Ovary adenocarcinoma); test: Calcein AM cytotoxicity assay; conditions: SEQ ID 2 80 μg/mL, doxorubicin 100 μM; 48h
Method: as §4, §5, §6, §7, §8, §9, §10, §11, §12, §13

[24] = tested on: SK-Mel-28 (Human melanoma); test: Calcein AM cytotoxicity assay; conditions: SEQ ID 2 80 μg/mL, doxorubicin 100 μM; 48h
Method: as §4, §5, §6, §7, §8, §9, §10, §11, §12, §13

[25] = tested on: Human Primary mammary epithelial (HMEC) cells; test: Calcein AM cytotoxicity assay; conditions: SEQ ID 2 80 μg/mL, doxorubicin 100 μM; 48h
Method: as §4, §5, §6, §7, §8, §9, §10, §11, §12, §13

[26] = tested on: PC-3 (Human Prostate Cancer); test: Calcein AM cytotoxicity assay; conditions: SEQ ID 2 80 μg/mL, doxorubicin 100 μM; 48h
Method: as §4, §5, §6, §7, §8, §9, §10, §11, §12, §13

[27] = tested on: Glioblastoma (LN-18); test: cytotoxicity in Brain Tumor Cell lines by MTT assay; assay type: cell-based, Human; conditions: 0.1 Mm-100 μM, 72 h
Method: as §2

[28] = tested on: Neuroblastoma (SH-SY5Y); test: as above; assay type: cell-based, Human; conditions: 0.1 Mm-100 μM, 72 h
Method: as §2

SMILES: COc1cccc2c1C(=O)c1c(O)c3c(c(O)c1C2=O)C[C@@](O)(C(=O)CO)C[C@@H]3O[C@H]1C[C@H](N)[C@H](O)[C@H](C)O1 [Doxorubicin, reference compound]
- Maximum Tumor Growth Inhibition (%) [1]: 84.48%
- Tumor Volume (mm^3) (Mean ± SEM) [1]: 631 ± 87 mm^3
- Maximum Tumor Growth Inhibition (%) [2]: 65.23%
- Tumor Volume (mm^3) (Mean ± SEM) [2]: 771 ± 65 mm^3
- Maximum Tumor Growth Inhibition (%) [3]: 42.12%
- Tumor Volume (mm^3) (Mean ± SEM) [3]: 808.47 ± 178.59 mm^3
- Maximum Tumor Growth Inhibition (%) [4]: 64.60%
- Tumor Volume (mm^3) (Mean ± SEM) [4]: 616 ± 118 mm^3
- Maximum Tumor Growth Inhibition (%) [5]: 59.07%
- Tumor Volume (mm^3) (Mean ± SEM) [5]: 366.32 ± 34.28 mm^3
- % of cytotoxicity [6]: 11.2%-78.6%
- % of cytotoxicity [7]: 57.8%-86.3%
- Percentage inhibition on levels of VEGFR2 ([8]; 1 μM): 38.2%
- Percentage inhibition on levels of VEGFR2 ([8]; 10 μM): 50.1%
- Percentage inhibition on levels of PDGF-BB ([9]; 1 μM): 12%
- Percentage inhibition on levels of PDGF-BB ([9]; 10 μM): 100%
- Percentage inhibition on levels of Contactin-1 ([10]; 1 μM): 50%
- Percentage inhibition on levels of Contactin-1 ([10]; 10 μM): 23.3%
- Percentage inhibition on levels of HGFR/c-MET ([11]; 1 μM): 45.5%
- Percentage inhibition on levels of HGFR/c-MET ([11]; 10 μM): 55.2%
- Percentage inhibition on levels of TNF-α ([12]; 1 μM): 67.8%
- Percentage inhibition on levels of TNF-α ([12]; 10 μM): 42.3%
- Percentage inhibition on levels of HGF ([13]; 1 μM): 45.3%
- Percentage inhibition on levels of HGF ([13]; 10 μM): 84%
- Percentage inhibition on levels of VEGF ([14]; 1 μM): 53%
- Percentage inhibition on levels of VEGF ([14]; 10 μM): 93.4%
- Percentage inhibition on levels of Notch-1 [15]: 8%
- Cytotoxicity at highest concentration tested [16]: 33.6%
- Cytotoxicity at highest concentration tested [17]: 60.7%
- Cytotoxicity at highest concentration tested [18]: 93.5%
- Cytotoxicity at highest concentration tested [19]: 78.4%
- Cytotoxicity at highest concentration tested [20]: 93.8%
- Cytotoxicity at highest concentration tested [21]: 75.0%
- Cytotoxicity at highest concentration tested [22]: 87.2%
- Cytotoxicity at highest concentration tested [23]: 61.74%
- Cytotoxicity at highest concentration tested [24]: 65.9%
- Cytotoxicity at highest concentration tested [25]: 87.6%
- Cytotoxicity at highest concentration tested [26]: 75.3%
- % of cytotoxicity [27]: 6.5%-47.7%
- % of cytotoxicity [28]: 21.7%-61.7%
